Where two headings read alike, the source gives them in different places.
Tests used:
[1] = Loading efficiency of cargo into polymersomes by fluorescence; type: physicochemical; conditions: FNP, single cargo, FIG. 4A
Method: The loading efficiency of the target molecule in the nanocarriers by the methods of the present invention is measured as the ratio of target molecule encapsulated within the nanocarrier to the total amount of target molecule available for loading in the initial solution. The loading efficiency is typically greater than about 40% for both proteins and hydrophobic molecules (i.e., […], about 40%, about 45%, about 50%, about 60%, about 70%, about 80%, about 85%, about 90%, or any percentages in between). In some embodiments of the invention, the loading efficiency is greater than at least 45%.
Nanocarriers were formed using the confined impingement jets (CIJ) mixer described by Han et al. PEG-bl-PPS copolymers and hydrophobic molecules to be loaded within polymersomes were dissolved in 500 μL of tetrahydrofuran (THF) and placed into a 1 mL plastic disposable syringe. […] For fluorescence measurements, samples were taken both before and after column purification to assess loading efficiency. […]
Fluorescence and absorbance measurements were taken on a SpectraMax M3 microplate reader (Molecular Devices). All readings were taken in black-walled clear bottom 96-well plates (Corning 07-200-567), at 100 μL volumes. All readings were normalized to a 100 μL 1×PBS blank control. […] NBT diformazan was detected via absorbance at 620 nm.

[2] = ZINC15 database, cited from earlier work

O=C(O)CN(CC(=O)O)Cc1cc2c(cc1O)Oc1cc(O)c(CN(CC(=O)O)CC(=O)O)cc1C21OC(=O)c2ccccc21 [Calcein, calcein]
loading efficiency into polymersomes [1]: lowest loading efficiency | logP Values [2]: 1.608 | logP Values ([2]; listed as calcein): 1.6

CCOC(=O)c1ccccc1-c1c2cc(Br)c(=O)c(Br)c-2oc2c(Br)c([O-])c(Br)cc12.[K+] [Ethyl Eosin, ethyl eosin]
loading efficiency into polymersomes [1]: very high loading efficiencies

CO[C@H]1C[C@@H]2CC[C@@H](C)[C@@](O)(O2)C(=O)C(=O)N2CCCC[C@H]2C(=O)O[C@H]([C@H](C)C[C@@H]2CC[C@@H](O)[C@H](OC)C2)CC(=O)[C@H](C)/C=C(\C)[C@@H](O)[C@@H](OC)C(=O)[C@H](C)C[C@H](C)/C=C/C=C/C=C/1C [Rapamycin, rapamycin]
logP Values [2]: 6.181
